Results from PubChem BioAssay AID1963973 (Molecular Pharmacology Branch, DTP, NCI, 2024).

Test system: 883617-216-R-J1-PDC tumor spheroids, viability
Assay: Anticancer human tumor 883617-216-R-J1-PDC patient-derived bladder carcinoma cell line growth inhibition [PI3K]
Conditions: spheroids with HUVEC and MSC; for IC50: curve of first compound; for viability, T/C: stronger effect = lower value
How it was run: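 We assembled tumor spheroids that included a stromal compartment of HUVEC and MSCs, then exposed them to targeted agents alone and together with PI3K pathway inhibitors. Concentration series descended by half-log from clinically achievable Cmax levels. Viability served as the endpoint.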

[1] = second compound 0.00316 µM, first compound 0.0316 µM
[2] = second compound 0.00316 µM, first compound 0.1 µM
[3] = second compound 0.00316 µM, first compound 0.316 µM
[4] = second compound 0.00316 µM, first compound 1 µM
[5] = second compound 0.00316 µM, first compound 3.16 µM
[6] = second compound 0.00316 µM, first compound 10 µM
[7] = second compound 0.01 µM, first compound 0.0316 µM
[8] = second compound 0.01 µM, first compound 0.1 µM
[9] = second compound 0.01 µM, first compound 0.316 µM
[10] = second compound 0.01 µM, first compound 1 µM
[11] = second compound 0.01 µM, first compound 3.16 µM
[12] = second compound 0.01 µM, first compound 10 µM
[13] = second compound 0.0316 µM, first compound 0.0316 µM
[14] = second compound 0.0316 µM, first compound 0.1 µM
[15] = second compound 0.0316 µM, first compound 0.316 µM
[16] = second compound 0.0316 µM, first compound 1 µM
[17] = second compound 0.0316 µM, first compound 3.16 µM
[18] = second compound 0.0316 µM, first compound 10 µM
[19] = second compound 0.1 µM, first compound 0.0316 µM
[20] = second compound 0.1 µM, first compound 0.1 µM
[21] = second compound 0.1 µM, first compound 0.316 µM
[22] = second compound 0.1 µM, first compound 1 µM
[23] = second compound 0.1 µM, first compound 3.16 µM
[24] = second compound 0.1 µM, first compound 10 µM
[25] = second compound 0.316 µM, first compound 0.0316 µM
[26] = second compound 0.316 µM, first compound 0.1 µM
[27] = second compound 0.316 µM, first compound 0.316 µM
[28] = second compound 0.316 µM, first compound 1 µM
[29] = second compound 0.316 µM, first compound 3.16 µM
[30] = second compound 0.316 µM, first compound 10 µM
[31] = second compound 1 µM, first compound 0.0316 µM
[32] = second compound 1 µM, first compound 0.1 µM
[33] = second compound 1 µM, first compound 0.316 µM
[34] = second compound 1 µM, first compound 1 µM
[35] = second compound 1 µM, first compound 3.16 µM
[36] = second compound 1 µM, first compound 10 µM
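Also: spheroids exposed to agents for 7 days before the viability read.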

With `Cn1nccc1Nc1nccc(-c2ccn(C(CO)c3ccc(Cl)c(F)c3)c(=O)c2)n1` (stereo not drawn) + COc1c(OCCCN2CCOCC2)ccc2c3n(c(=NC(=O)c4cnc(N)nc4)nc12)CCN3 the IC50 (second compound 0.00316 µM) was 3300 nM, the IC50 (second compound 0.01 µM) was 335 nM and the IC50 (second compound 0.0316 µM) was less than 31.6 nM. The IC50 (second compound 0.1 µM) was less than 31.6 nM, the IC50 (second compound 0.316 µM) was less than 31.6 nM and the IC50 (second compound 1 µM) was less than 31.6 nM. For the same molecule, the viability, T/C [1] was 83.4%, the viability, T/C [2] was 76.7% and the viability, T/C [3] was 64.6%. It also gave a viability, T/C [4] of 65%, a viability, T/C [5] of 47.9% and a viability, T/C [6] of 40.4%. For the same molecule, the viability, T/C [7] was 59.4%, the viability, T/C [8] was 59.5% and the viability, T/C [9] was 51%. It also gave a viability, T/C [10] of 40.4%, a viability, T/C [11] of 39.9% and a viability, T/C [12] of 33.8%. For the same molecule, the viability, T/C [13] was 39.3%, the viability, T/C [14] was 33.5% and the viability, T/C [15] was 26.7%. The viability, T/C [16] was 27.8%, the viability, T/C [17] was 21.5% and the viability, T/C [18] was 14.3%. For the same molecule, the viability, T/C [19] was 12.8%, the viability, T/C [20] was 12.8% and the viability, T/C [21] was 10.5%. It also gave a viability, T/C [22] of 7.47%, a viability, T/C [23] of 6.96% and a viability, T/C [24] of 6.94%. The viability, T/C [25] was 5.61%, the viability, T/C [26] was 3.51% and the viability, T/C [27] was 4.13%. It also gave a viability, T/C [28] of 1.85%, a viability, T/C [29] of 1.07% and a viability, T/C [30] of 1.21%. For the same molecule, the viability, T/C [31] was 2.27%, the viability, T/C [32] was 1.46% and the viability, T/C [33] was 0.6%. It also gave a viability, T/C [34] of 0.25%, a viability, T/C [35] of 0.12% and a viability, T/C [36] of 0.12%.
`CC(C)NCC(C(=O)N1CCN(c2ncnc3c2C(C)CC3O)CC1)c1ccc(Cl)cc1` (stereo not drawn) + COc1c(OCCCN2CCOCC2)ccc2c3n(c(=NC(=O)c4cnc(N)nc4)nc12)CCN3 was tested, and the IC50 (second compound 0.00316 µM) was 475 nM, the IC50 (second compound 0.01 µM) was 167 nM and the IC50 (second compound 0.0316 µM) was less than 31.6 nM. It also gave an IC50 (second compound 0.1 µM) of less than 31.6 nM, an IC50 (second compound 0.316 µM) of less than 31.6 nM and an IC50 (second compound 1 µM) of less than 31.6 nM. For the same molecule, the viability, T/C [1] was 89.7%, the viability, T/C [2] was 67.4% and the viability, T/C [3] was 59.5%. The viability, T/C [4] was 41.5%, the viability, T/C [5] was 18.4% and the viability, T/C [6] was 7.44%. For the same molecule, the viability, T/C [7] was 63.5%, the viability, T/C [8] was 53.7% and the viability, T/C [9] was 45.7%. The viability, T/C [10] was 26.7%, the viability, T/C [11] was 17.2% and the viability, T/C [12] was 6.61%. It also gave a viability, T/C [13] of 44.2%, a viability, T/C [14] of 37.1% and a viability, T/C [15] of 26.4%. For the same molecule, the viability, T/C [16] was 27.7%, the viability, T/C [17] was 8.87% and the viability, T/C [18] was 4.74%. For the same molecule, the viability, T/C [19] was 22%, the viability, T/C [20] was 15% and the viability, T/C [21] was 12.2%. For the same molecule, the viability, T/C [22] was 9.69%, the viability, T/C [23] was 5.3% and the viability, T/C [24] was 3.5%. The viability, T/C [25] was 5.34%, the viability, T/C [26] was 5.49% and the viability, T/C [27] was 4.1%. For the same molecule, the viability, T/C [28] was 4.13%, the viability, T/C [29] was 3.12% and the viability, T/C [30] was 2.45%. It also gave a viability, T/C [31] of 2.86%, a viability, T/C [32] of 3.36% and a viability, T/C [33] of 3.4%. For the same molecule, the viability, T/C [34] was 2.86%, the viability, T/C [35] was 3.11% and the viability, T/C [36] was 1.47%.
`C#Cc1c(F)ccc2cc(O)cc(-c3ncc4c(N5CC6CCC(C5)N6)nc(OCC56CCCN5CC(F)C6)nc4c3F)c12` (stereo not drawn) + Cc1nc(NC(=O)N2CCCC2C(N)=O)sc1-c1ccnc(C(C)(C)C(F)(F)F)c1 gave an IC50 (second compound 0.0316 µM) greater than 10000 nM, an IC50 (second compound 0.1 µM) of 6560 nM and an IC50 (second compound 0.316 µM) of less than 31.6 nM. It also gave an IC50 (second compound 1 µM) of less than 31.6 nM, an IC50 (second compound 3.16 µM) of less than 31.6 nM and an IC50 (second compound 10 µM) of less than 31.6 nM. The viability, T/C [13] was 81.1%, the viability, T/C [14] was 89.1% and the viability, T/C [15] was 77.6%. For the same molecule, the viability, T/C [16] was 80.9%, the viability, T/C [17] was 79.7% and the viability, T/C [18] was 57.5%. The viability, T/C [19] was 69.8%, the viability, T/C [20] was 66.5% and the viability, T/C [21] was 76.8%. It also gave a viability, T/C [22] of 74.2%, a viability, T/C [23] of 63.1% and a viability, T/C [24] of 41.1%. The viability, T/C [25] was 53.8%, the viability, T/C [26] was 47.3% and the viability, T/C [27] was 45.5%. It also gave a viability, T/C [28] of 46.5%, a viability, T/C [29] of 43.7% and a viability, T/C [30] of 24.7%. The viability, T/C [31] was 28.2%, the viability, T/C [32] was 28.3% and the viability, T/C [33] was 26.8%. For the same molecule, the viability, T/C [34] was 29%, the viability, T/C [35] was 24.7% and the viability, T/C [36] was 19.9%. The viability, T/C (second compound 3.16 µM, first compound 0.0316 µM) was 15.2%, the viability, T/C (second compound 3.16 µM, first compound 0.1 µM) was 13.1% and the viability, T/C (second compound 3.16 µM, first compound 0.316 µM) was 12.6%. It also gave a viability, T/C (second compound 3.16 µM, first compound 1 µM) of 14.5%, a viability, T/C (second compound 3.16 µM, first compound 3.16 µM) of 15.3% and a viability, T/C (second compound 3.16 µM, first compound 10 µM) of 8.2%. The viability, T/C (second compound 10 µM, first compound 0.0316 µM) was 7.88%, the viability, T/C (second compound 10 µM, first compound 0.1 µM) was 7.4% and the viability, T/C (second compound 10 µM, first compound 0.316 µM) was 5.56%. The viability, T/C (second compound 10 µM, first compound 1 µM) was 7.83%, the viability, T/C (second compound 10 µM, first compound 3.16 µM) was 5.24% and the viability, T/C (second compound 10 µM, first compound 10 µM) was 0.61%.
`Cn1ncc(Cl)c1-c1cc(C(=O)NC(CN)Cc2cccc(F)c2)sc1Cl` (stereo not drawn) + COc1c(OCCCN2CCOCC2)ccc2c3n(c(=NC(=O)c4cnc(N)nc4)nc12)CCN3 gave an IC50 (second compound 0.00316 µM) of 473 nM, an IC50 (second compound 0.01 µM) of 241 nM and an IC50 (second compound 0.0316 µM) of less than 31.6 nM. It also gave an IC50 (second compound 0.1 µM) of less than 31.6 nM, an IC50 (second compound 0.316 µM) of less than 31.6 nM and an IC50 (second compound 1 µM) of less than 31.6 nM. The viability, T/C [1] was 83.1%, the viability, T/C [2] was 85.4% and the viability, T/C [3] was 59%. The viability, T/C [4] was 29.6%, the viability, T/C [5] was 13.9% and the viability, T/C [6] was 5.61%. For the same molecule, the viability, T/C [7] was 66%, the viability, T/C [8] was 61.6% and the viability, T/C [9] was 45.4%. For the same molecule, the viability, T/C [10] was 28.1%, the viability, T/C [11] was 10% and the viability, T/C [12] was 4.83%. It also gave a viability, T/C [13] of 33.8%, a viability, T/C [14] of 34.7% and a viability, T/C [15] of 33.2%. It also gave a viability, T/C [16] of 15.1%, a viability, T/C [17] of 8.09% and a viability, T/C [18] of 3.75%. It also gave a viability, T/C [19] of 17.8%, a viability, T/C [20] of 12.7% and a viability, T/C [21] of 10.8%. For the same molecule, the viability, T/C [22] was 8.94%, the viability, T/C [23] was 5.15% and the viability, T/C [24] was 2.08%. It also gave a viability, T/C [25] of 6.38%, a viability, T/C [26] of 4.23% and a viability, T/C [27] of 5.38%. The viability, T/C [28] was 5.78%, the viability, T/C [29] was 2.33% and the viability, T/C [30] was 1.23%. For the same molecule, the viability, T/C [31] was 3.15%, the viability, T/C [32] was 3.32% and the viability, T/C [33] was 2.66%. For the same molecule, the viability, T/C [34] was 2.93%, the viability, T/C [35] was 2.39% and the viability, T/C [36] was 0.58%.
